Literature values as cited in patent US7601707B1, “Method for instantly relieving tissue inflammation” (priority 2003, dated 2009).

Legend:
[1] = in vivo
[2] = dose at which some people begin to feel toxic systemic effects; not considered lethal

| water solubility | SMILES | Half-life [1] | Max dose Mg/Kg [2] |
| --- | --- | --- | --- |
|  | CCCNC(C)C(=O)Nc1c(C)csc1C(=O)OC (stereo not drawn) [Articaine] | 0.333 h | 7.0 Mg/Kg |
|  | CCCCN1CCCCC1C(=O)Nc1c(C)cccc1C (stereo not drawn) [Bupivicaine] | 3.5 h | 1.3 Mg/Kg |
| very water-soluble | C[C@@H]1C[C@H]2[C@@H]3CCC4=CC(=O)C=C[C@]4(C)[C@@]3(F)[C@@H](O)C[C@]2(C)[C@@]1(O)C(=O)CO [Dexamethasone] |  |  |
|  | CCCN(CC)C(CC)C(=O)Nc1c(C)cccc1C (stereo not drawn) [Etidocaine] | 2.58 h | 8.0 Mg/Kg |
|  | CCN(CC)CC(=O)Nc1c(C)cccc1C [Lidocaine] |  | 7.0 Mg/Kg |
|  | Cc1cccc(C)c1NC(=O)C1CCCCN1C (stereo not drawn) [Mepivicaine 2%, Mepivicaine] | 1.92 h | 6.6 Mg/Kg |
|  | CCCNC(C)C(=O)Nc1ccccc1C (stereo not drawn) [Prilocaine] | 1.5 h | 8.0 Mg/Kg |
